# Data as given in patent publication US20070093539A1, “N-hydroxy-4-(3-pheyl-5-methyl-isoxazole-4-yl)-benzenesulfonate solvates” (priority 2003, published 2007).
# Assays:
# [1] = system: carrageenan-induced foot paw edema; assay: Carrageenan-induced rat foot paw edema assay; assay type: in vivo, male Wistar rats; details: for ED30 of edema inhibition: p.o.
# Procedure: The edema was induced in male Wistar rats (140-150 g) by subcutaneous injection of carrageenan (50 μl of 1% suspension) into the right hind paw. The formed inflammation was measured with plethysmometer (Ugo Basile, type: 7150). The treated paw was placed into the plethysmometer (filled with 0.3% additives in 0.5% saline), the level of the inflammation was detected by the volume of the displaced solution. This volume was compared with the initial preinjection paw volume. Level of the inflammation (ml)=volume after CA treatment (ml)−volume before CA treatment (ml) The inflammation induced in treated group was compared to control group (which was given only vehicle). The sample materials and the solvent were dosed per os via gastro-sonde 1 hour before the CA treatment. The volume of the treated limb was measured at 3h and 5h after CA treatments. The change of the inflammation level was calculated as follows: [formula]
# [2] = system: carrageenan and kaolin induced monoarthritis; assay: Carrageenan and kaolin induced monoarthritis model (incapacitance test); assay type: in vivo, rats; details: 10 mg/kg p.o.
# Procedure: The Incapacitance tester is an apparatus for measure the changes of the functional parameters induced of the pain, which can register the bearing on the hind limb, the amount of the moving and the changing of the centre of gravity. Knee-joint of the right-back limb was treated with solution of 100 μl 2% carrageenan and kaolin. During 3-4 hours after the treatment arthritis was emerged in the capsular ligament of the treated limb. This inflammation still exists at 24 hours after the treatment. Because of the pain the animals coddles the treated limbs, thy weign on it less. Change of weight load is measurable with Incapacitance tester device in grams. The incapacitance was calculated as follows: [formula] Analgesic-antiinflammantory compounds could increase the stimulus threshold of the knee-joint, and consequently to improve the functional parameters of the limb. Measure of this can be counted by the decrease of the loading of left leg i.e. in terms of percentage of reversal. [formula] The Incapacitance induced by administration of irritants in left paw was measured at 4 hour after the injection. Afterwards the animals (n=24-32/group) were. orally treated with dose of 10 mg/kg valdecoxib and test compounds. Measurements were done at 1 and 2 hours after the treatments.
# [3] = target: T1, Human recombinant COX-2 (Homo sapiens, UniProt P35354); assay: spectrophotometric TMPD assay, COX-2; assay type: biochemical; details: 15 min preincubation at 25° C., read-out: Human recombinant COX-2 IC50 (μM) ± S.E.M.
# T1 construct: purchased Cayman Chemical, Ann Arbor, USA 60122
# T1 sequence (P35354 18-604): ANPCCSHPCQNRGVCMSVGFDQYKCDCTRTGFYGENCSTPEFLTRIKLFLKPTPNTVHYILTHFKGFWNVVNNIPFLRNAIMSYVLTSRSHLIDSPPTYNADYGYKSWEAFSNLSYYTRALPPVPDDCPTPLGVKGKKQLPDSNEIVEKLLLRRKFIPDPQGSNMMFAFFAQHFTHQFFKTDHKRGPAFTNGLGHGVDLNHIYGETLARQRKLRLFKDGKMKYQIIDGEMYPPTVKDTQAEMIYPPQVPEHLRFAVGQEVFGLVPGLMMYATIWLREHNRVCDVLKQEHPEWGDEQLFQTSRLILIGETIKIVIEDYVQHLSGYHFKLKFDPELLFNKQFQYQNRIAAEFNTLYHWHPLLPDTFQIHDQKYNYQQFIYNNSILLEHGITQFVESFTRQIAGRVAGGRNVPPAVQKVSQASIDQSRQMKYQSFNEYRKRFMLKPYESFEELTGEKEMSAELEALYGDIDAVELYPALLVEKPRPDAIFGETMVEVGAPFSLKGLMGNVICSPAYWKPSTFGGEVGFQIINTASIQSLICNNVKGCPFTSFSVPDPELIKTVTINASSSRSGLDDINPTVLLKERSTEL
# Procedure: (§1) The Human recombinant COX-2 and sheep COX-1 activity were determined by spectrophotometric TMPD assay (K. Gierse, S. D. Hauser, D. P. Creely, C. M. Koboldt, S. H. Rangwala, P. C. Isakson and K. Seibert: Expression and selective inhibition of the constitutive and inducible forms of human cyclo-oxygenase Biochem. J. 305: 479-484 (1995)).
# (§2) The Human recombinant COX-2 and sheep COX-1 activity were measured by spectrophotometric assay based on oxidation of N,N,N′,N′,-tetramethyl-p-phenylenediamine (TMPD). During the reduction of the prostaglandine G2 (PGG2) to prostaglandine endoperoxid H2 (PGH2), the TMPD is being oxidated to a colour product, which can be measured by spectrophotometer at 610 nm.
# (§3) 4 μl of solution of inhibitors in different concentrations was added to the 156 μl of reaction mixture (100 mM sodium phosphate buffer, pH:6.5, 1 μM hematin, 1 mg/ml gelatine). Afterwards 20 μl solution of 50 unit human recombinant COX-2 enzym or 20 μl of 50 unit sheep COX-1 enzym (Cayman Chemical, Ann Arbor, USA, cat no.: 60122/COX-2/, cat. no.: 60100/COX-1/) was added. The incubation mixture: was preincubated for 15 minutes at 25° C. in a spectrophotometric 96-well plate reader (Labsystem iEMS Reader MF). Following this, the mixture of 20 μl 1 mM arachidonic acid and 1 mM TMPD solution were added. It was shaken for 10 second and the absorbance was measured at 610 nm.
# [4] = target: T2, sheep COX-1 (Ovis aries, UniProt P05979); assay: spectrophotometric TMPD assay, COX-1; assay type: biochemical; details: 15 min preincubation at 25° C., read-out: Sheep COX-1 IC50 (μM) ± S.E.M.
# T2 construct: purchased Cayman Chemical, Ann Arbor, USA 60100
# T2 sequence (P05979 25-600): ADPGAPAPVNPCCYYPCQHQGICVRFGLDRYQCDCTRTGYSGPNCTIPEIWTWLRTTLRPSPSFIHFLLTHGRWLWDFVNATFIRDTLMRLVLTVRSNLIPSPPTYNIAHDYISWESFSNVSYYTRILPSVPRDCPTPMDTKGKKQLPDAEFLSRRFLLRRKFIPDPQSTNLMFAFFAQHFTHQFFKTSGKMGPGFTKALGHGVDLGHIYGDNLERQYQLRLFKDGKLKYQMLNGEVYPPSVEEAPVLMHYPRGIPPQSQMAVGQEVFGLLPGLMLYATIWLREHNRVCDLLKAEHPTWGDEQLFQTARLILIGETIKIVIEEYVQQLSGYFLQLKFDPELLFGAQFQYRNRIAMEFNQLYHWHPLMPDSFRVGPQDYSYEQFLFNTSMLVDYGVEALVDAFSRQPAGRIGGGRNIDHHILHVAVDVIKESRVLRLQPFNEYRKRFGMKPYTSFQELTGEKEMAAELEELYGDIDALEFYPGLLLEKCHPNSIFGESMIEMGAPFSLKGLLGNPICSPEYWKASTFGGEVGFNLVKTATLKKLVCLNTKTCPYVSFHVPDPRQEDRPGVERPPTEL
# Procedure: as §1, §2, §3
substance,measurement,setting,value
N-hydroxi-4-(3-phenyl-5-methyl-isoxazole-4-yl)-benzenesulfonamide monohydrate [example 1],edema inhibition effect %,"[1]; 0.3 mg/kg p.o., 4 hours after treatment",19.5%
same,edema inhibition effect %,"[1]; 0.3 mg/kg p.o., 6 hours after treatment",17.5%
same,edema inhibition effect %,"[1]; 1.0 mg/kg p.o., 4 hours after treatment",25.2%
same,edema inhibition effect %,"[1]; 1.0 mg/kg p.o., 6 hours after treatment",37.2%
same,edema inhibition effect %,"[1]; 3.0 mg/kg p.o., 4 hours after treatment",33.9%
same,edema inhibition effect %,"[1]; 3.0 mg/kg p.o., 6 hours after treatment",40.4%
same,edema inhibition effect %,"[1]; 10.0 mg/kg p.o., 4 hours after treatment",40.7%
same,edema inhibition effect %,"[1]; 10.0 mg/kg p.o., 6 hours after treatment",59.2%
same,ED30 of edema inhibition,[1]; 4 hours after treatment,1.8 mg/kg
same,ED30 of edema inhibition,[1]; 6 hours after treatment,0.8 mg/kg
same,Analgesic effect (% reversal) after p.o. treatment,[2]; 1 hour,63.2 % reversal
same,Analgesic effect (% reversal) after p.o. treatment,[2]; 2 hours,76.9 % reversal
same,IC50,[3],1.1 ± 0.3 µM
same,IC50,[4],101 ± 12.5 µM
